Results on 33 compounds are retold here after publication PMC12040169 (PLOS Biology, 2025).

This data set is described as follows: in vitro. As to conditions: human, hela cells, % viability.

The structures appear in SMILES notation.

As for `Cn1cc(C2CCCCCN2C(=O)c2ccccc2F)cn1` (stereo not drawn) [CBK285119], the viability at 28.5 h, 10 µM worked out at 107%.

For `Cc1cc(C(=O)N2CCCCCC2c2nn(C)cc2Cl)on1` (stereo not drawn) [CBK285121], the viability at 28.5 h, 10 µM came to 107%. Next, `Cc1csc(C(Cc2cccs2)NC(=O)C2CCOC2)n1` (stereo not drawn) [CBK285123]: 106%. Next, `Cc1cnc(C(=O)N[C@H]2C3CCCCC3[C@@H]2c2ccccc2)cn1` (stereo partly drawn) [CBK285125]: 102%; `Cn1nccc1C(=O)N[C@H]1C2CCCCC2[C@@H]1c1ccccc1` (stereo partly drawn) [CBK285127]: 102%; `Cc1nc(C)n(CC(=O)N[C@H]2C3CCCCC3[C@@H]2c2ccccc2)n1` (stereo partly drawn) [CBK285128]: 94.7%. Under `Cn1cc(C(=O)N2CCc3ncc(Cl)cc3C2)ccc1=O` [CBK285130] stands 100%; under `CN1Cc2ccccc2OC2(CCCN(C(=O)C3CC3)CC2)C1` (stereo not drawn) [CBK285131], 110%; under `CC(C)C(=O)N1CCCC2(CC1)CN(C)Cc1ccccc1O2` (stereo not drawn) [CBK285132], 103%.

Regarding `O=C(NC(Cc1cccs1)c1nccs1)c1cccnc1` (stereo not drawn) [CBK285133], the viability at 28.5 h, 10 µM stood at 98.3%. With `Cn1ccc(C(=O)NC(Cc2cccs2)c2nccs2)n1` (stereo not drawn) [CBK285135], the viability at 28.5 h, 10 µM came out at 91.4%. Next, `Cc1ccn(CCC(=O)NC(Cc2ccsc2)c2nccs2)n1` (stereo not drawn) [CBK285137]: 92.5%; `Cn1nccc1C(=O)NC(Cc1ccsc1)c1nccs1` (stereo not drawn) [CBK285138]: 98.1%; `CCc1nccn1CC(=O)NC(Cc1ccsc1)c1nccs1` (stereo not drawn) [CBK285139]: 111%.

Take `Cc1ccnn1C(C)C(=O)NC(Cc1ccsc1)c1nccs1` (stereo not drawn) [CBK285141]: the viability at 28.5 h, 10 µM was 92.1%.

Turning to `CCc1onc(C)c1C(=O)NC(Cc1ccsc1)c1nccs1` (stereo not drawn) [CBK285142], the viability at 28.5 h, 10 µM was 94%. For the compound `Cn1ccc(C(=O)NC(Cc2ccsc2)c2nccs2)cc1=O` (stereo not drawn) [CBK285143], the viability at 28.5 h, 10 µM stood at 87%. Take `Cc1cc(C[C@@H]2COC[C@H]2NCC(C)c2ccccc2)on1` (stereo partly drawn) [CBK285145]: the viability at 28.5 h, 10 µM is 88.5%.

Regarding `CC(=O)NC(c1nccs1)C1CCCN(CC2CCCCC2)C1` (stereo not drawn) [CBK285152], the viability at 28.5 h, 10 µM was found to be 95.1%. With `O=C(CCC1CCCO1)NC(Cc1ccsc1)c1cccnc1` (stereo not drawn) [CBK285159], the viability at 28.5 h, 10 µM was found to be 87.6%. Next, `c1ccc([C@@H]2CN(Cc3ccncc3)C[C@H]2c2cc[nH]n2)cc1` [CBK285161]: 88%; `c1ccc([C@@H]2CN(Cc3ccccn3)C[C@H]2c2cc[nH]n2)cc1` [CBK285162]: 105%; `c1ccc([C@@H]2CN(CC3CCOC3)C[C@H]2c2cc[nH]n2)cc1` (stereo partly drawn) [CBK285163]: 110%. With `Cc1cnc2[nH]c(C3CCCN(C(=O)c4cccnc4)C3)cc2c1` (stereo not drawn) [CBK285168], the viability at 28.5 h, 10 µM was 86.1%. Next, `Cc1cnc2[nH]c(C3CCCN(C(=O)c4cccnc4C)C3)cc2c1` (stereo not drawn) [CBK285169]: 101%; `CCN(CC)CC1CCCN(C(=O)CCn2ccc3ccncc32)C1` (stereo not drawn) [CBK285174]: 85.4%; `COc1ccccc1CC(C)NC(=O)CCn1ccc2ccncc21` (stereo not drawn) [CBK285175]: 93.8%. On to `Cc1ccc2nc(-c3ccc4c(c3)CCN4S(C)(=O)=O)cn2c1` [CBK285185], for which the viability at 28.5 h, 10 µM was 96.6%. Under `Cc1nc(C)c(C(=O)N2CCC(c3cc4c(C)cccc4cn3)CC2)o1` [CBK285186] stands 108%. Under `Cn1ccnc1C1(O)C2CCCC1CN(Cc1ccc(F)c(F)c1)C2` (stereo not drawn) [CBK285189] stands 95.1%.

Turning to `CS(=O)(=O)N1CCc2cc(-c3cn4ccccc4n3)ccc21` [CBK285190], the viability at 28.5 h, 10 µM was found to be 85.6%. As for `CC(=O)N1c2ccc(-c3cn4ccc(C)cc4n3)cc2CC1C` (stereo not drawn) [CBK285191], the viability at 28.5 h, 10 µM stood at 79.2%. Take `Cc1cccc2cc3c(nc12)OCCN(C)C3` [CBK285192]: the viability at 28.5 h, 10 µM came out at 89.1%.
